The text below walks through data of US9206136B2, “Pyrazolyl-based carboxamides I” (Grünenthal GmbH, priority 2013, dated 2015).

In assay [1] the target is T1, CRAC channel (endogenous SOC in HEK293 cells) (Homo sapiens, UniProt Q96D31).
T1 construct: host or cells: HEK293
Kind of assay: HEK Calcium Influx Assay (FLIPR). Type of assay: cell-based. As to conditions: 10 μM compound, thapsigargin store depletion, Ca2+ signal 9.5-10 min post-administration, read-out: % inhib. [@ 10 μM] FLIPR. As for the experimental part: Compounds of the invention have been tested for their effects on CRAC channels according to the following or similar procedures.
The effect of compounds of the invention on intracellular [Ca^2+] was tested in the HEK293 cell line (ECACC).
HEK293 cells were cultured in DMEM/F12/Glutamax (Gibco) containing 10% FCS (Gibco), and maintained at 37° C., 5% CO2. Cell were split twice a week [3·10^6 (Mon-Thu) and 1·10^6 (Thu-Mon) cells/50 ml medium in T-175 ZK culture flasks, respectively]. 24 hours pre-experiment, cells were seeded on 96 well plates (Poly-D-Lysine 96well Black/Clear Plate, BD Biocoat REF 356640) at a density of 40,000 cells/well in DMEM/F12 (Gibco) containing 10% FCS (Gibco), and maintained at 37° C., 5% CO2.
Prior to store-depletion, cell culture medium was removed and cells were loaded with the a Ca^2+-sensitive fluorescent dye comprised within the Calcium-4-assay kit (Molecular Devices) in nominally Ca^2+-free HBS buffer (140 mM NaCl, 4 mM KCl, 0.2 mM MgCl2, 11 mM D-glucose, and 10 mM HEPES, pH 7.4) according to manufacturer's instruction for 60 min at 37° C., 5% CO2.
Passive depletion of intracellular Ca^2+-stores was then triggered by employing the SERCA inhibitor thapsigargin (2 μM final) for 10 min in the dark (rt). To prevent immediate Ca^2+-entry via the activated Store-operated channels (SOCs), cells were maintained in Ca^2+-free HBS buffer comprising 100 μM EGTA during store-depletion.
Intracellular changes in [Ca^2+] were subsequently monitored with the FLIPR device (Molecular Devices). In brief, baseline imaging post-store depletion was allowed for 1 min before adjusting the extracellular buffer to 3 mM CaCl2. Increases in intracellular [Ca^2+] due to pre-activated SOC channels were monitored for 15 min until intracellular Ca^2+ levels had declined into a steady-state. Finally, compounds were administered and Ca^2+ signals were recorded for additional 10 min.
Inhibition of endogenous SOC in HEK293 cells was quantified employing the average Ca^2+ signal measured from 9.5-10 min post-administration. Zero percent inhibition (MAX) was defined as the Ca^2+ signal recorded from wells to which DMSO-only had been added instead of compound. Hundred percent inhibition (MIN) was defined as the signal obtained from wells in which cells haven't been treated with TG prior to Ca^2+ addition and to which DMSO-only had been added instead of compound. For routine IC50 determinations of compounds, 8 concentrations of a serial dilution (1:3.16) were tested, starting off from 10 μM. Reliable IC50's could consequently be determined only, if they were at least sub 2.5-3 μM.

In assay [2] the test system is Interleukin-2 (IL-2) production/release in Jurkat T cell line clone E6-1. Kind of assay: Jurkat IL-2 Production Assay. Type of assay: cell-based. The conditions noted are these: Homo sapiens; Jurkat T cells stimulated with 15 μg/ml PHA for 22 hours; IL-2 in supernatant (AlphaLisa). The method, then:
Jurkat IL-2 Production Assay
The effect of compounds of the invention on Interleukin-2 (IL-2) production/release was tested in the Jurkat T cell line (ECACC) clone E6-1.
Jurkat T cells were cultured in DMEM/F12/Glutamax (Gibco) containing 10% FCS (Gibco), and maintained at 37° C., 5% CO2. Cells were split twice a week [5·10^6 (Mon-Thu) and 1·10^7 (Thu-Mon) cells/50 ml medium in T-175 ZK culture flasks, respectively].
Prior to experiment, cells were seeded on 96 well plates (Cellstar 96 Well; Cat No. 655180, Greiner bio-one) at a density of 5·10^5 cells/well in DMEM/F12/Glutamax (Gibco) containing 10% FCS (Gibco), and incubated for 60 min at 37° C., 5% CO2. Subsequently, compounds were added and cells were allowed to incubate for 30 min at 37° C., 5% CO2. Cells were then stimulated with 15 μg/ml Phyto-hemagglutinin (PHA; Sigma) for 22 hours at 37° C., 5% CO2.
Before sampling of the supernatants, cells were spun down (200*g/5 min/RT). The amount of IL-2 released into the supernatant was quantified with the human IL-2 AlphaLisa kit (Perkin Elmer) according to manufacturer's instructions. Luminescence proximity measurements were carried out in the Synergy H4 reader (BioTek) employing the fluorescence setting of the reader (ex: 680/30 nm; em: 620/40 nm).
Inhibition of IL-Production/Release in/from Jurkat T Cells Cells was Quantified as Follows:
Zero percent inhibition (MAX) was defined as the [IL-2] determined in supernatants derived from cells to which PHA & DMSO-only had been added instead of compound. Hundred percent inhibition (MIN) was defined as the [IL-2] determined in supernatants derived from cells that had been pre-treated with 1 μM CyclosporineA (Sigma) before the addition of 15 μg/ml PHA.
For routine IC50 determinations of compounds, 8 concentrations of a serial dilution (1:3.16) were tested, starting off from 10 μM.

T1 sequence (Q96D31 whole entry): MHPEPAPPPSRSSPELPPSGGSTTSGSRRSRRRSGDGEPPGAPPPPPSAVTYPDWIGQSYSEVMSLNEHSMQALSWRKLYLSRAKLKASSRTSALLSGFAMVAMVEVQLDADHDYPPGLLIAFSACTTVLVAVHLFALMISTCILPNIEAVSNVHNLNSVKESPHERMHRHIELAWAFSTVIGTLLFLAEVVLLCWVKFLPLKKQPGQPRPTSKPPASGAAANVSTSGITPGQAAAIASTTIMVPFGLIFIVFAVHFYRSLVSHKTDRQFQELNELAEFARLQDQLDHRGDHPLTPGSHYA

Usually IC50 stands for the midpoint of a concentration-inhibition curve. As for `Cn1nc(C(=O)Nc2ccncc2F)cc1-c1ccc(C2CC2)cc1OC(F)(F)F` [Example 41, 5-[4-Cyclopropyl-2-(trifluoromethyloxy)-phenyl]-N-(3-fluoro-pyridin-4-yl)-1-methyl-1H-pyrazole-3-carboxylic acid amide], the inhibition at 10 µM in assay [1] was greater than 70%. Besides, in assay [2], the IC50 was 1 to 5 µM.
With `Cc1ccc(-c2ncco2)cc1-c1c(N)c(C(=O)Nc2c(F)cncc2F)nn1C` [Example 43, 4-Amino-N-(3,5-difluoro-pyridin-4-yl)-1-methyl-5-(2-methyl-5-oxazol-2-yl-phenyl)-1H-pyrazole-3-carboxylic acid amide], in assay [1], the inhibition at 10 µM is less than 50%. For the same molecule, the IC50 in assay [2] lay within 1 to 5 µM.
In the same order, the values of `COc1ccc(-c2nccs2)cc1-c1c(N)c(C(=O)Nc2c(F)cccc2F)nn1C` [Example 44, 4-Amino-N-(2,6-difluoro-phenyl)-5-(2-methoxy-5-thiazol-2-yl-phenyl)-1-methyl-1H-pyrazole-3-carboxylic acid amide] are less than 50% and 1 to 5 µM.
In the same order, the values of `COc1ccc(-c2ncco2)cc1-c1c(N)c(C(=O)Nc2c(F)cncc2F)nn1C` [Example 45, 4-amino-N-(3,5-difluoropyridin-4-yl)-5-(2-methoxy-5-(oxazol-2-yl)phenyl)-1-methyl-1H-pyrazole-3-carboxamide] are less than 50% and 1 to 5 µM.
The corresponding values for `COc1ccc(-c2ncco2)cc1-c1c(N)c(C(=O)Nc2c(F)cccc2F)nn1C` [Example 46, 4-amino-N-(2,6-difluorophenyl)-5-(2-methoxy-5-(oxazol-2-yl)phenyl)-1-methyl-1H-pyrazole-3-carboxamide] are less than 50% and 1 to 5 µM.
For the molecule `COc1ccc(-c2nccs2)cc1-c1c(N)c(C(=O)Nc2c(F)cncc2F)nn1C` [Example 47, 4-amino-N-(3,5-difluoropyridin-4-yl)-5-(2-methoxy-5-(thiazol-2-yl)phenyl)-1-methyl-1H-pyrazole-3-carboxamide], the inhibition at 10 µM in assay [1] is less than 50%. Further, in assay [2], the IC50 was in the range of 1 to 5 µM.
In the same order, the values of `COc1ccc(C2=NOC(C)(C)C2=O)cc1-c1cc(C(=O)Nc2c(F)cccc2F)nn1C` [Example 48] are less than 50% and 0.5 to 1 µM.
The corresponding values for `Cn1nc(C(=O)Nc2c(F)cccc2F)c(N)c1-c1cc(-c2ncco2)ccc1OC(F)(F)F` [Example 49, 4-amino-N-(2,6-difluorophenyl)-1-methyl-5-(5-(oxazol-2-yl)-2-(trifluoromethoxy)phenyl)-1H-pyrazole-3-carboxamide] are 50 to 70% and 0.5 to 1 µM.
In the case of `Cn1nc(C(=O)Nc2c(F)cncc2F)c(N)c1-c1cc(-c2ncco2)ccc1OC(F)(F)F` [Example 50, 4-amino-N-(3,5-difluoropyridin-4-yl)-1-methyl-5-(5-(oxazol-2-yl)-2-(trifluoromethoxy)phenyl)-1H-pyrazole-3-carboxamide], in assay [1], the inhibition at 10 µM was less than 50%. Further, the IC50 in assay [2] was in the range of 1 to 5 µM.
